Measured values as given in article PMC5218480 (PLoS ONE, 2017).

Tested on: MV-4-11 cells
Test: Gene expression microarray analysis (Affymetrix PrimeView) and GSEA
Format: cell-based, human
Set-up: RFU PODN (11730768_x_at) / Fold change /veh PODN (11730768_x_at) / RFU LINC00158 (11744669_a_at) / Fold change /veh LINC00158 (11744669_a_at) / RFU DUSP10 (11751237_a_at) / Fold change /veh DUSP10 (11751237_a_at) / RFU ID3 (11757404_x_at) / Fold change /veh ID3 (11757404_x_at) / RFU PLEKHG5 (11737974_s_at) / Fold change /veh PLEKHG5 (11737974_s_at) / RFU LRRC4B (11730491_at) / Fold change /veh LRRC4B (11730491_at) / RFU GIMAP4 (11747438_a_at) / Fold change /veh GIMAP4 (11747438_a_at) / RFU KRT8 (11758183_x_at) / Fold change /veh KRT8 (11758183_x_at) / RFU CNN1 (11734310_a_at) / Fold change /veh CNN1 (11734310_a_at) / RFU VPS37D (11726825_at) / Fold change /veh VPS37D (11726825_at) / RFU C10orf10 (11716522_x_at) / Fold change /veh C10orf10 (11716522_x_at) / RFU KIR2DL2 /// KIR2DL4 /// KIR2DL5A /// KIR2DL5B /// KIR2DS1 /// KIR2DS2 /// KIR2DS3 /// KIR2DS4 /// KIR3DL3 /// KIR3DL3 /// KIR3DS1 (11738374_at) / Fold change /veh KIR2DL2 /// KIR2DL4 /// KIR2DL5A /// KIR2DL5B /// KIR2DS1 /// KIR2DS2 /// KIR2DS3 /// KIR2DS4 /// KIR3DL3 /// KIR3DL3 /// KIR3DS1 (11738374_at) / RFU C1QL1 (11718748_at) / Fold change /veh C1QL1 (11718748_at) / RFU TMPRSS4 (11747572_a_at) / Fold change /veh TMPRSS4 (11747572_a_at) / RFU HAMP (11756126_x_at) / Fold change /veh HAMP (11756126_x_at) / RFU RNFT2 (11725882_a_at) / Fold change /veh RNFT2 (11725882_a_at) / RFU NR4A2 (11747474_a_at) / Fold change /veh NR4A2 (11747474_a_at) / RFU ABCC12 (11746883_a_at) / Fold change /veh ABCC12 (11746883_a_at) / RFU TMEM136 (11760407_x_at) / Fold change /veh TMEM136 (11760407_x_at) / RFU CLDN22 /// WWC2 (11732394_at) / Fold change /veh CLDN22 /// WWC2 (11732394_at) / RFU HLA-DPB1 (11760878_x_at) / Fold change /veh HLA-DPB1 (11760878_x_at) / RFU SPINT1 (11716480_a_at) / Fold change /veh SPINT1 (11716480_a_at) / RFU GAP43 (11754022_s_at) / Fold change /veh GAP43 (11754022_s_at) / RFU A4GNT (11735810_at) / Fold change /veh A4GNT (11735810_at) / RFU PRB3 (11715151_x_at) / Fold change /veh PRB3 (11715151_x_at) / RFU TUBB4B (11761932_at) / Fold change /veh TUBB4B (11761932_at) / RFU CAPN14 (11732068_a_at) / Fold change /veh CAPN14 (11732068_a_at) / RFU TMCC2 (11721928_a_at) / Fold change /veh TMCC2 (11721928_a_at) / RFU IRGQ (11745062_a_at) / Fold change /veh IRGQ (11745062_a_at) / RFU FAM174B (11720279_a_at) / Fold change /veh FAM174B (11720279_a_at) / RFU TMPRSS4 (11748680_a_at) / Fold change /veh TMPRSS4 (11748680_a_at) / RFU FAM212B (11763350_a_at) / Fold change /veh FAM212B (11763350_a_at) / RFU PLEKHG5 (11743358_a_at) / Fold change /veh PLEKHG5 (11743358_a_at) / RFU ZSCAN30 (11745921_a_at) / Fold change /veh ZSCAN30 (11745921_a_at) / RFU CMKLR1 (11741424_a_at) / Fold change /veh CMKLR1 (11741424_a_at) / RFU LOC101060620 /// MAPK8IP1 (11723275_at) / Fold change /veh LOC101060620 /// MAPK8IP1 (11723275_at) / RFU SPTSSB (11747773_x_at) / Fold change /veh SPTSSB (11747773_x_at) / RFU PRSS12 (11739890_at) / Fold change /veh PRSS12 (11739890_at) / RFU BIN1 (11741810_x_at) / Fold change /veh BIN1 (11741810_x_at) / RFU WNT11 (11732464_a_at) / Fold change /veh WNT11 (11732464_a_at) / RFU C10orf10 (11716521_a_at) / Fold change /veh C10orf10 (11716521_a_at) / RFU C5orf56 (11738089_at) / Fold change /veh C5orf56 (11738089_at) / RFU CYB561 (11721691_x_at) / Fold change /veh CYB561 (11721691_x_at) / RFU ANKRD19P (11752326_a_at) / Fold change /veh ANKRD19P (11752326_a_at) / RFU OR2T12 /// OR2T33 /// OR2T8 (11738714_s_at) / Fold change /veh OR2T12 /// OR2T33 /// OR2T8 (11738714_s_at) / RFU VCAN (11748164_a_at) / Fold change /veh VCAN (11748164_a_at) / RFU JSRP1 (11732532_at) / Fold change /veh JSRP1 (11732532_at) / RFU KRTAP10-11 (11738290_x_at) / Fold change /veh KRTAP10-11 (11738290_x_at) / RFU MYO3A (11730013_a_at) / Fold change /veh MYO3A (11730013_a_at) / RFU EBF3 (11725865_a_at) / Fold change /veh EBF3 (11725865_a_at) / RFU CAMK2N1 (11719241_x_at) / Fold change /veh CAMK2N1 (11719241_x_at) / RFU C5orf56 (11738088_a_at) / Fold change /veh C5orf56 (11738088_a_at) / RFU OLFML3 (11715873_a_at) / Fold change /veh OLFML3 (11715873_a_at) / RFU LOC100653217 /// NTM (11731650_a_at) / Fold change /veh LOC100653217 /// NTM (11731650_a_at) / RFU MAPK11 (11762145_a_at) / Fold change /veh MAPK11 (11762145_a_at) / RFU FIZ1 (11724087_x_at) / Fold change /veh FIZ1 (11724087_x_at) / RFU OASL (11726364_x_at) / Fold change /veh OASL (11726364_x_at) / RFU SOX15 (11748057_x_at) / Fold change /veh SOX15 (11748057_x_at) / RFU CD79A (11719716_a_at) / Fold change /veh CD79A (11719716_a_at) / RFU HIST1H1D (11736915_at) / Fold change /veh HIST1H1D (11736915_at) / RFU CASKIN2 (11723855_a_at) / Fold change /veh CASKIN2 (11723855_a_at) / RFU LOC730098 (11760151_x_at) / Fold change /veh LOC730098 (11760151_x_at) / RFU OR4N2 (11742367_at) / Fold change /veh OR4N2 (11742367_at) / RFU PRRT2 (11749266_a_at) / Fold change /veh PRRT2 (11749266_a_at) / RFU SNX32 (11753110_a_at) / Fold change /veh SNX32 (11753110_a_at) / RFU CDHR5 (11726645_a_at) / Fold change /veh CDHR5 (11726645_a_at) / RFU RCAN1 (11760418_a_at) / Fold change /veh RCAN1 (11760418_a_at) / RFU FAM167A (11723789_a_at) / Fold change /veh FAM167A (11723789_a_at) / RFU FAM26E (11764081_at) / Fold change /veh FAM26E (11764081_at) / RFU ISYNA1 (11749810_s_at) / Fold change /veh ISYNA1 (11749810_s_at) / RFU ACY1 (11761880_at) / Fold change /veh ACY1 (11761880_at) / RFU 11764098_at / Fold change /veh 11764098_at / RFU SAMD14 (11745864_x_at) / Fold change /veh SAMD14 (11745864_x_at) / RFU NPB (11741838_a_at) / Fold change /veh NPB (11741838_a_at) / RFU TMPRSS6 (11731388_a_at) / Fold change /veh TMPRSS6 (11731388_a_at) / RFU KRTAP10-2 (11738614_at) / Fold change /veh KRTAP10-2 (11738614_at) / RFU ARHGAP8 /// PRR5-ARHGAP8 (11727945_x_at) / Fold change /veh ARHGAP8 /// PRR5-ARHGAP8 (11727945_x_at) / RFU KRTAP5-7 /// NADSYN1 (11734609_at) / Fold change /veh KRTAP5-7 /// NADSYN1 (11734609_at) / RFU RASL12 (11751679_a_at) / Fold change /veh RASL12 (11751679_a_at) / RFU CDKN2B (11736163_a_at) / Fold change /veh CDKN2B (11736163_a_at) / RFU PRF1 (11729649_at) / Fold change /veh PRF1 (11729649_at) / RFU, ZNF638 /// ZNF638-IT1 / Fold change vs veh, ZNF638 /// ZNF638-IT1 / RFU, PANK3 / Fold change vs veh, PANK3 / RFU, SH3YL1 / Fold change vs veh, SH3YL1 / RFU, ZEB2 / Fold change vs veh, ZEB2 / RFU, NRIP1 / Fold change vs veh, NRIP1 / RFU, PTTG1IP / Fold change vs veh, PTTG1IP / RFU, CAPN2 / Fold change vs veh, CAPN2 / RFU, MED14 / Fold change vs veh, MED14 / RFU, SNORA58 / Fold change vs veh, SNORA58 / RFU, C1orf63 / Fold change vs veh, C1orf63 / RFU, LRRFIP1 / Fold change vs veh, LRRFIP1 / RFU, NDUFAF7 / Fold change vs veh, NDUFAF7 / RFU, SLC12A2 / Fold change vs veh, SLC12A2 / RFU, IBTK / Fold change vs veh, IBTK / RFU, ESF1 / Fold change vs veh, ESF1 / Fold change vs veh, TMEM50B / RFU, TAOK1 / Fold change vs veh, TAOK1 / RFU, ACBD3 / Fold change vs veh, ACBD3 / RFU, TMA16 / Fold change vs veh, TMA16 / RFU, RWDD3 / Fold change vs veh, RWDD3 / RFU, BCAT1 / Fold change vs veh, BCAT1 / RFU, EDEM3 / Fold change vs veh, EDEM3 / RFU, TMEM33 / Fold change vs veh, TMEM33 / RFU, WDR75 / Fold change vs veh, WDR75 / RFU, AHCTF1 / Fold change vs veh, AHCTF1 / RFU, TFRC / Fold change vs veh, TFRC / RFU, ZDHHC17 / Fold change vs veh, ZDHHC17 / RFU, NOM1 / Fold change vs veh, NOM1 / RFU, ARL8B / Fold change vs veh, ARL8B / RFU, ZBTB11 / Fold change vs veh, ZBTB11 / RFU, TAMM41 / Fold change vs veh, TAMM41 / RFU, KIAA1704 /// LOC100996395 / Fold change vs veh, KIAA1704 /// LOC100996395 / RFU, ING1 / Fold change vs veh, ING1 / RFU, TRMT61B / Fold change vs veh, TRMT61B / RFU, FUBP3 / Fold change vs veh, FUBP3 / RFU, TP53 / Fold change vs veh, TP53 / RFU, TNKS2 / Fold change vs veh, TNKS2 / RFU, ZFP14 / Fold change vs veh, ZFP14 / RFU, ACTR2 / Fold change vs veh, ACTR2 / RFU, PPP3R1 / Fold change vs veh, PPP3R1 / RFU, PIK3R1 / Fold change vs veh, PIK3R1 / RFU, HNRNPA1 / Fold change vs veh, HNRNPA1 / RFU, RNF170 / Fold change vs veh, RNF170 / RFU, ZNF28 / Fold change vs veh, ZNF28 / RFU, RNGTT / Fold change vs veh, RNGTT / RFU, OGT / Fold change vs veh, OGT / RFU, BRD1 / Fold change vs veh, BRD1 / RFU, MARS / Fold change vs veh, MARS / RFU, ZNF655 / Fold change vs veh, ZNF655 / RFU, FAHD1 / Fold change vs veh, FAHD1 / RFU, BDP1 / Fold change vs veh, BDP1 / RFU, LRRCC1 / Fold change vs veh, LRRCC1 / RFU, ARID1A / Fold change vs veh, ARID1A / RFU, ZNF146 / Fold change vs veh, ZNF146 / RFU, ZNF330 / Fold change vs veh, ZNF330 / RFU, GPN3 / Fold change vs veh, GPN3 / RFU, C9orf123 / Fold change vs veh, C9orf123 / RFU, N4BP2L2 / Fold change vs veh, N4BP2L2 / RFU, ARFIP1 / Fold change vs veh, ARFIP1 / RFU, FAM179B / Fold change vs veh, FAM179B / RFU, BCL10 / Fold change vs veh, BCL10 / RFU, UHRF1BP1L / Fold change vs veh, UHRF1BP1L / RFU, BET1 / Fold change vs veh, BET1 / RFU, CNOT2 / Fold change vs veh, CNOT2 / RFU, ZNF268 / Fold change vs veh, ZNF268 / Fold change vs veh, ZNF507 / RFU, DGCR2 / Fold change vs veh, DGCR2 / RFU, WDSUB1 / Fold change vs veh, WDSUB1 / Fold change vs veh, HSP90B1 /// MIR3652 / RFU, ADSS / Fold change vs veh, ADSS / RFU, GK / Fold change vs veh, GK / RFU, ZNF148 / Fold change vs veh, ZNF148 / RFU, TAF9 / Fold change vs veh, TAF9 / RFU, SLC1A5 / Fold change vs veh, SLC1A5 / RFU, SLMO2 / Fold change vs veh, SLMO2 / RFU, ABCC4 / Fold change vs veh, ABCC4 / RFU, LOC101060439 /// RAP1B / Fold change vs veh, LOC101060439 /// RAP1B / RFU, RFX7 / Fold change vs veh, RFX7 / RFU, GTPBP10 / Fold change vs veh, GTPBP10 / RFU, CNEP1R1 / Fold change vs veh, CNEP1R1 / RFU, BIVM-ERCC5 /// ERCC5 / Fold change vs veh, BIVM-ERCC5 /// ERCC5 / RFU, ILF3 / Fold change vs veh, ILF3 / RFU 11762660_at / Fold change /veh 11762660_at / RFU VCAN (11757783_s_at) / Fold change /veh VCAN (11757783_s_at) / RFU DDX43 (11728927_at) / Fold change /veh DDX43 (11728927_at) / RFU KRT8 (11758188_x_at) / Fold change /veh KRT8 (11758188_x_at) / RFU NKD1 (11759106_at) / Fold change /veh NKD1 (11759106_at) / RFU SRD5A1 (11742802_a_at) / Fold change /veh SRD5A1 (11742802_a_at) / RFU TPSAB1 /// TPSB2 (11721975_s_at) / Fold change /veh TPSAB1 /// TPSB2 (11721975_s_at) / RFU GSTM3 (11746129_a_at) / Fold change /veh GSTM3 (11746129_a_at) / RFU IL23R (11737362_x_at) / Fold change /veh IL23R (11737362_x_at) / RFU TMEM51 (11727254_a_at) / Fold change /veh TMEM51 (11727254_a_at) / RFU PIWIL2 (11732686_x_at) / Fold change /veh PIWIL2 (11732686_x_at) / RFU ORM1 (11744905_x_at) / Fold change /veh ORM1 (11744905_x_at) / RFU CCDC152 (11743942_at) / Fold change /veh CCDC152 (11743942_at) / RFU ECM1 (11717891_a_at) / Fold change /veh ECM1 (11717891_a_at) / RFU IL23R (11748794_a_at) / Fold change /veh IL23R (11748794_a_at) / RFU TNFAIP8L3 (11732012_x_at) / Fold change /veh TNFAIP8L3 (11732012_x_at) / RFU MBOAT4 (11741988_at) / Fold change /veh MBOAT4 (11741988_at) / RFU 11764193_at / Fold change /veh 11764193_at / RFU TMEM53 (11763286_at) / Fold change /veh TMEM53 (11763286_at) / RFU MAGEB2 (11727129_at) / Fold change /veh MAGEB2 (11727129_at) / RFU TMEM200A (11744735_a_at) / Fold change /veh TMEM200A (11744735_a_at) / RFU CCDC152 (11751479_a_at) / Fold change /veh CCDC152 (11751479_a_at) / RFU FAM211A (11726209_a_at) / Fold change /veh FAM211A (11726209_a_at) / RFU RGS16 (11746705_a_at) / Fold change /veh RGS16 (11746705_a_at) / RFU VCAN (11755009_s_at) / Fold change /veh VCAN (11755009_s_at) / RFU RHOB (11743442_s_at) / Fold change /veh RHOB (11743442_s_at) / RFU RGS16 (11720943_a_at) / Fold change /veh RGS16 (11720943_a_at) / RFU RGS16 (11720944_at) / Fold change /veh RGS16 (11720944_at) / RFU, VPS4B / Fold change vs veh, VPS4B / RFU, CREB1 / Fold change vs veh, CREB1 / RFU, DNAJC13 / Fold change vs veh, DNAJC13 / RFU, GNAQ / Fold change vs veh, GNAQ / RFU, CDK5R1 / Fold change vs veh, CDK5R1 / RFU, ZRANB3 / Fold change vs veh, ZRANB3 / RFU, CUL4A / Fold change vs veh, CUL4A / RFU, CCNY / Fold change vs veh, CCNY / RFU, UFL1 / Fold change vs veh, UFL1 / RFU, COG3 / Fold change vs veh, COG3 / RFU, DIAPH2 / Fold change vs veh, DIAPH2 / RFU, SKA2 / Fold change vs veh, SKA2 / RFU, AFF3 / Fold change vs veh, AFF3 / RFU, LMF1 / Fold change vs veh, LMF1 / RFU, IPO11 / Fold change vs veh, IPO11 / RFU, DFFB / Fold change vs veh, DFFB / RFU, FOXP1 / Fold change vs veh, FOXP1 / RFU, CARD8 / Fold change vs veh, CARD8 / RFU, STRN3 / Fold change vs veh, STRN3 / RFU, ADK / Fold change vs veh, ADK / RFU, RASSF2 / Fold change vs veh, RASSF2 / RFU, WIPF1 / Fold change vs veh, WIPF1 / RFU, LARP1B / Fold change vs veh, LARP1B / RFU, RASA1 / Fold change vs veh, RASA1 / RFU, RB1 / Fold change vs veh, RB1 / RFU, PPFIA1 / Fold change vs veh, PPFIA1 / RFU, MAT2A / Fold change vs veh, MAT2A / RFU, CCT5 / Fold change vs veh, CCT5 / RFU, WDR92 / Fold change vs veh, WDR92 / RFU, CUX1 / Fold change vs veh, CUX1 / RFU, TTC7A / Fold change vs veh, TTC7A / RFU, TMEM135 / Fold change vs veh, TMEM135 / RFU, DEPTOR / Fold change vs veh, DEPTOR / RFU, CPM / Fold change vs veh, CPM / RFU, DNAJB6 / Fold change vs veh, DNAJB6 / RFU, CACNA2D3 / Fold change vs veh, CACNA2D3 / RFU, DTX4 / Fold change vs veh, DTX4 / RFU, TFCP2 / Fold change vs veh, TFCP2 / RFU, GMCL1 /// GMCL1P1 / Fold change vs veh, GMCL1 /// GMCL1P1 / RFU, AEBP2 / Fold change vs veh, AEBP2 / RFU, SNHG1 /// SNORD22 /// SNORD25 /// SNORD26 /// SNORD27 /// SNORD28 /// SNORD29 /// SNORD31 / Fold change vs veh, SNHG1 /// SNORD22 /// SNORD25 /// SNORD26 /// SNORD27 /// SNORD28 /// SNORD29 /// SNORD31 / Fold change (Aza/veh), C12orf56 (ProbeSet 11735607_a_at) / Fold change (ACY-1035/veh), C12orf56 (ProbeSet 11735607_a_at) / Fold change (Aza/veh), FGFR1OP (ProbeSet 11751329_s_at) / Fold change (ACY-1035/veh), FGFR1OP (ProbeSet 11751329_s_at) / Fold change (Aza/veh), VPS36 (ProbeSet 11739960_a_at) / Fold change (ACY-1035/veh), VPS36 (ProbeSet 11739960_a_at) / RFU SYPL1 (11715823_x_at) / Fold change /veh SYPL1 (11715823_x_at) / RFU IGFBP7 (11715501_s_at) / Fold change /veh IGFBP7 (11715501_s_at) / RFU REEP3 (11722064_at) / Fold change /veh REEP3 (11722064_at) / RFU IGLL1 (11728026_x_at) / Fold change /veh IGLL1 (11728026_x_at): dose or concentration left out as unconfirmed
Conditions: ProbeSet 11753234_a_at; LIST B

With Nc1ncn([C@@H]2O[C@H](CO)[C@@H](O)[C@H]2O)c(=O)n1 [azacitidine] the “Fold change vs veh, TAMM41” value was 0.86.
